Measurements published in publication PMC11845477, “Exploring the principles behind antibiotics with limited resistance” (Nature Communications, 2025).
Where a SMILES comes first, the peptide text is derived from it. Bridges are numbered along the chain shown (N, C = ends). [ ]: non-standard residue; d: D form. The star is where a group is joined. X2 = CC[C@H](C)CCCCC(=O)*; Dab = NCC[C@H](N)C(=O)O

Key:
[1] = system: K. pneumoniae ATCC 10031 (SEN) and K. pneumoniae ATCC 700603 (MDR); assay: Adaptive laboratory evolution (ALE), relative MIC of evolved lines; assay type: cell-based, Klebsiella pneumoniae
Summary of the method: (§1)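 Ten parallel populations per antibiotic–ancestor pair were evolved in MHB at 37 °C, starting near 50% growth-inhibiting drug. Every 72 h they were passaged into 0.5–2.5× increasing concentrations, keeping the highest-drug well with OD600 > 0.2.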

[2] = system: A. baumannii ATCC 17978 (SEN) and A. baumannii ATCC BAA-1605 (MDR); assay: as above; assay type: cell-based, Acinetobacter baumannii
Summary of the method: as §1

Compound: CC[C@H](C)CCCCC(=O)N[C@@H](CCN)C(=O)N[C@H](C(=O)N[C@@H](CCN)C(=O)N[C@H]1CCNC(=O)[C@H]([C@@H](C)O)NC(=O)[C@H](CCN)NC(=O)[C@H](CCN)NC(=O)[C@H](CC(C)C)NC(=O)[C@@H](Cc2ccccc2)NC(=O)[C@H](CCN)NC1=O)[C@@H](C)O [Polymyxin B] (X2-[Dab]T[Dab][Dab][Dab][dF]L[Dab][Dab]T; lactam 4-C (inferred); N-terminus assumed)
- Relative MIC (log10) ([1]; KP-MDR (Klebsiella pneumoniae ATCC 700603), evolved line 3): 2.408 log10
- Relative MIC (log10) ([1]; KP-MDR (Klebsiella pneumoniae ATCC 700603), evolved line 5): 2.408 log10
- Relative MIC (log10) ([1]; KP-MDR (Klebsiella pneumoniae ATCC 700603), evolved line 6): 2.408 log10
- Relative MIC (log10) ([1]; KP-MDR (Klebsiella pneumoniae ATCC 700603), evolved line 9): 2.408 log10
- Relative MIC (log10) ([1]; KP-MDR (Klebsiella pneumoniae ATCC 700603), evolved line 10): 2.408 log10
- Relative MIC (log10) ([1]; KP-SEN (Klebsiella pneumoniae ATCC 10031), evolved line 1): 2.408 log10
- Relative MIC (log10) ([1]; KP-SEN (Klebsiella pneumoniae ATCC 10031), evolved line 2): 2.709 log10
- Relative MIC (log10) ([1]; KP-SEN (Klebsiella pneumoniae ATCC 10031), evolved line 3): 2.709 log10
- Relative MIC (log10) ([1]; KP-SEN (Klebsiella pneumoniae ATCC 10031), evolved line 9): 2.709 log10
- Relative MIC (log10) ([1]; KP-SEN, Klebsiella pneumoniae ATCC 10031, evolved line 5): 2.709 log10
- Relative MIC (log10) ([2]; AB-MDR (Acinetobacter baumannii ATCC BAA 1605), evolved line 4): 3.0103 log10
- Relative MIC (log10) ([2]; AB-MDR (Acinetobacter baumannii ATCC BAA 1605), evolved line 5): 3.0103 log10
- Relative MIC (log10) ([2]; AB-MDR (Acinetobacter baumannii ATCC BAA 1605), evolved line 6): 3.0103 log10
- Relative MIC (log10) ([2]; AB-MDR (Acinetobacter baumannii ATCC BAA 1605), evolved line 7): 3.0103 log10
- Relative MIC (log10) ([2]; AB-MDR (Acinetobacter baumannii ATCC BAA 1605), evolved line 9): 3.0103 log10
- Relative MIC (log10) ([2]; AB-SEN (Acinetobacter baumannii ATCC 17978), evolved line 1): 2.709 log10
- Relative MIC (log10) ([2]; AB-SEN (Acinetobacter baumannii ATCC 17978), evolved line 2): 2.709 log10
- Relative MIC (log10) ([2]; AB-SEN (Acinetobacter baumannii ATCC 17978), evolved line 4): 2.709 log10
- Relative MIC (log10) ([2]; AB-SEN (Acinetobacter baumannii ATCC 17978), evolved line 6): 2.709 log10
- Relative MIC (log10) ([2]; AB-SEN (Acinetobacter baumannii ATCC 17978), evolved line 9): 2.408 log10

Compound: polymyxin-B
- MIC of evolved line ([1]; KP-MDR ATCC 700603, evolved line 1): 512 µg/mL
- MIC of evolved line ([1]; KP-MDR ATCC 700603, evolved line 2): 512 µg/mL
- MIC of evolved line ([1]; KP-MDR ATCC 700603, evolved line 3): 256 µg/mL
- MIC of evolved line ([1]; KP-MDR ATCC 700603, evolved line 4): 256 µg/mL
- MIC of evolved line ([1]; KP-MDR ATCC 700603, evolved line 5): 256 µg/mL
- MIC of evolved line ([1]; KP-MDR ATCC 700603, evolved line 6): 256 µg/mL
- MIC of evolved line ([1]; KP-MDR ATCC 700603, evolved line 7): 256 µg/mL
- MIC of evolved line ([1]; KP-MDR ATCC 700603, evolved line 8): 512 µg/mL
- MIC of evolved line ([1]; KP-MDR ATCC 700603, evolved line 9): 256 µg/mL
- MIC of evolved line ([1]; KP-MDR ATCC 700603, evolved line 10): 256 µg/mL
- MIC of evolved line ([1]; KP-SEN (K. pneumoniae ATCC 10031), evolved line 1 of the given antibiotic): 512 µg/mL
- MIC of evolved line ([1]; KP-SEN (K. pneumoniae ATCC 10031), evolved line 2 of the given antibiotic): 1020 µg/mL
- MIC of evolved line ([1]; KP-SEN (K. pneumoniae ATCC 10031), evolved line 3 of the given antibiotic): 1020 µg/mL
- MIC of evolved line ([1]; KP-SEN (K. pneumoniae ATCC 10031), evolved line 4 of the given antibiotic): 256 µg/mL
- MIC of evolved line ([1]; KP-SEN (K. pneumoniae ATCC 10031), evolved line 5 of the given antibiotic): 1020 µg/mL
- MIC of evolved line ([1]; KP-SEN (K. pneumoniae ATCC 10031), evolved line 7 of the given antibiotic): 256 µg/mL
- MIC of evolved line ([1]; KP-SEN (K. pneumoniae ATCC 10031), evolved line 8 of the given antibiotic): 256 µg/mL
- MIC of evolved line ([1]; KP-SEN (K. pneumoniae ATCC 10031), evolved line 9 of the given antibiotic): 1020 µg/mL
- MIC of evolved line ([1]; KP-SEN (K. pneumoniae ATCC 10031), evolved line 10 of the given antibiotic): 32 µg/mL
- MIC of evolved line ([2]; AB-MDR ATCC BAA 1605, evolved line 1): 512 µg/mL
- MIC of evolved line ([2]; AB-MDR ATCC BAA 1605, evolved line 2): 512 µg/mL
- MIC of evolved line ([2]; AB-MDR ATCC BAA 1605, evolved line 3): 256 µg/mL
- MIC of evolved line ([2]; AB-MDR ATCC BAA 1605, evolved line 4): 1020 µg/mL
- MIC of evolved line ([2]; AB-MDR ATCC BAA 1605, evolved line 5): 1020 µg/mL
- MIC of evolved line ([2]; AB-MDR ATCC BAA 1605, evolved line 6): 1020 µg/mL
- MIC of evolved line ([2]; AB-MDR ATCC BAA 1605, evolved line 7): 1020 µg/mL
- MIC of evolved line ([2]; AB-MDR ATCC BAA 1605, evolved line 8): 1020 µg/mL
- MIC of evolved line ([2]; AB-MDR ATCC BAA 1605, evolved line 9): 1020 µg/mL
- MIC of evolved line ([2]; AB-MDR ATCC BAA 1605, evolved line 10): 1020 µg/mL
- MIC of evolved line ([2]; AB-SEN (A. baumannii ATCC 17978), evolved line 1 of the given antibiotic): 512 µg/mL
- MIC of evolved line ([2]; AB-SEN (A. baumannii ATCC 17978), evolved line 2 of the given antibiotic): 512 µg/mL
- MIC of evolved line ([2]; AB-SEN (A. baumannii ATCC 17978), evolved line 3 of the given antibiotic): 256 µg/mL
- MIC of evolved line ([2]; AB-SEN (A. baumannii ATCC 17978), evolved line 4 of the given antibiotic): 512 µg/mL
- MIC of evolved line ([2]; AB-SEN (A. baumannii ATCC 17978), evolved line 5 of the given antibiotic): 512 µg/mL
- MIC of evolved line ([2]; AB-SEN (A. baumannii ATCC 17978), evolved line 6 of the given antibiotic): 512 µg/mL
- MIC of evolved line ([2]; AB-SEN (A. baumannii ATCC 17978), evolved line 8 of the given antibiotic): 256 µg/mL
- MIC of evolved line ([2]; AB-SEN (A. baumannii ATCC 17978), evolved line 9 of the given antibiotic): 256 µg/mL
